Measured values: patent publication US9868692B2, “Compounds and compositions for intracellular delivery of therapeutic agents” (MODERNATX, Inc., priority 2015, dated 2018)

Assays:
[1] = tested on: luciferase (Luc) mRNA expression; assay: Luc expression (total flux, bioluminescence) after intravenous administration to mice; type: in vivo; conditions: i.v., 0.5 mg/kg, 3, 6 and 24 hours, versus other compositions
Protocol: In order to monitor how effectively various nanoparticle compositions deliver therapeutic and/or prophylactics to targeted cells, different nanoparticle compositions including a particular therapeutic and/or prophylactic (for example, a modified or naturally occurring RNA such as an mRNA) are prepared and administered to rodent populations. Mice are intravenously, intramuscularly, intraarterially, or intratumorally administered a single dose including a nanoparticle composition with a formulation such as those provided in Example 3. In some instances, mice may be made to inhale doses. Dose sizes may range from 0.001 mg/kg to 10 mg/kg, where 10 mg/kg describes a dose including 10 mg of a therapeutic and/or prophylactic in a nanoparticle composition for each 1 kg of body mass of the mouse. A control composition including PBS may also be employed.
Upon administration of nanoparticle compositions to mice, dose delivery profiles, dose responses, and toxicity of particular formulations and doses thereof can be measured by enzyme-linked immunosorbent assays (ELISA), bioluminescent imaging, or other methods. For nanoparticle compositions including mRNA, time courses of protein expression can also be evaluated. Samples collected from the rodents for evaluation may include blood, sera, and tissue (for example, muscle tissue from the site of an intramuscular injection and internal tissue); sample collection may involve sacrifice of the animals.
The efficacy of the nanoparticle compositions presented in Table 1A was evaluated with a bioluminescence study. Formulations were administered intravenously to mice (n=6) at a dosage of 0.5 mg/kg (mpk) and bioluminescence measured at 3, 6, and 24 hour time points. The standard MC3 formulation and, in some instances, a control (e.g., a PBS control) were evaluated for comparison. […] In general, flux decreased as time progressed to less than 10% of the initial flux.
The total flux (measured by area under the curve, AUC) induced by administration of a formulation including a given lipid relative to that induced by administration of a formulation including MC3 was also measured for several lipids.

[2] = Particle size, polydispersity index (and zeta potential) of nanoparticle compositions, Zetasizer Nano ZS; type: physicochemical; conditions: Table 1A; lipid:DSPC:cholesterol:PEG-DMG 50:10:38.5:1.5 mol %, mRNA
Text: Nanoparticle compositions may be characterized by a variety of methods. For example, microscopy (e.g., transmission electron microscopy or scanning electron microscopy) may be used to examine the morphology and size distribution of a nanoparticle composition. Dynamic light scattering or potentiometry (e.g., potentiometric titrations) may be used to measure zeta potentials. Dynamic light scattering may also be utilized to determine particle sizes. Instruments such as the Zetasizer Nano ZS (Malvern Instruments Ltd, Malvern, Worcestershire, UK) may also be used to measure multiple characteristics of a nanoparticle composition, such as particle size, polydispersity index, and zeta potential.
A Zetasizer Nano ZS (Malvern Instruments Ltd, Malvern, Worcestershire, UK) can be used to determine the particle size, the polydispersity index (PDI) and the zeta potential of the nanoparticle compositions in 1×PBS in determining particle size and 15 mM PBS in determining zeta potential.

[3] = Encapsulation efficiency of RNA, QUANT-IT RIBOGREEN RNA assay; type: physicochemical; conditions: Table 1A formulations
Text: The efficiency of encapsulation of a therapeutic and/or prophylactic describes the amount of therapeutic and/or prophylactic that is encapsulated or otherwise associated with a nanoparticle composition after preparation, relative to the initial amount provided. The encapsulation efficiency is desirably high (e.g., close to 100%). The encapsulation efficiency may be measured, for example, by comparing the amount of therapeutic and/or prophylactic in a solution containing the nanoparticle composition before and after breaking up the nanoparticle composition with one or more organic solvents or detergents. Fluorescence may be used to measure the amount of free therapeutic and/or prophylactic (e.g., RNA) in a solution. For the nanoparticle compositions described herein, the encapsulation efficiency of a therapeutic and/or prophylactic may be at least 50%, for example 50%, 55%, 60%, 65%, 70%, 75%, 80%, 85%, 90%, 91%, 92%, 93%, 94%, 95%, 96%, 97%, 98%, 99%, or 100%. In some embodiments, the encapsulation efficiency may be at least 80%. In certain embodiments, the encapsulation efficiency may be at least 90%.
For nanoparticle compositions including an RNA, a QUANT-IT™ RIBOGREEN® RNA assay (Invitrogen Corporation Carlsbad, Calif.) can be used to evaluate the encapsulation of an RNA by the nanoparticle composition. The samples are diluted to a concentration of approximately 5 μg/mL in a TE buffer solution (10 mM Tris-HCl, 1 mM EDTA, pH 7.5). 50 μL of the diluted samples are transferred to a polystyrene 96 well plate and either 50 μL of TE buffer or 50 μL of a 2% Triton X-100 solution is added to the wells. The plate is incubated at a temperature of 37° C. for 15 minutes. The RIBOGREEN® reagent is diluted 1:100 in TE buffer, and 100 μL of this solution is added to each well. The fluorescence intensity can be measured using a fluorescence plate reader (Wallac Victor 1420 Multilablel Counter; Perkin Elmer, Waltham, Mass.) at an excitation wavelength of, for example, about 480 nm and an emission wavelength of, for example, about 520 nm. The fluorescence values of the reagent blank are subtracted from that of each of the samples and the percentage of free RNA is determined by dividing the fluorescence intensity of the intact sample (without addition of Triton X-100) by the fluorescence value of the disrupted sample (caused by the addition of Triton X-100).

Row | Size (nm) [2] [nm] | EE (%) [3] [%] | SMILES | flux at all time points measured [1]
1 | – | – | CCCCCCCCCOC(=O)CCCCCCCN(CCCCCCCC(=O)OC(CCCCCCCC)CCCCCCCC)CCOC(C)=O [Compound 9, Heptadecan-9-yl 8-((2-acetoxyethyl)(8-(nonyloxy)-8-oxooctyl)amino) octanoate] | significantly lower flux
2 | – | – | CCCCCCCCCOC(=O)CCCCCCCN(CCCCCCCC(=O)OC(CCCCCCCC)CCCCCCCC)CCOCCN(C)C [Compound 17, Heptadecan-9-yl 8-((2-(2-(dimethylamino)ethoxy)ethyl)(8-(nonyloxy)-8-oxooctyl)amino)octanoate] | significantly lower flux
3 | – | – | CCCCCCCCCOC(=O)CCCCCCCN(CCO)CCCCCCCC(=O)OC(CCCC)CCCC [Compound 57, nonan-5-yl 8-((2-hydroxyethyl)(8-(nonyloxy)-8-oxooctyl)amino) octanoate] | significantly lower flux
4 | – | – | CCCCCCCCCOC(=O)CCCCCCCN(CCO)CCCCCCCC(=O)OC(CCC)CCC [Compound 58, heptan-4-yl 8-((2-hydroxyethyl)(8-(nonyloxy)-8-oxooctyl)amino) octanoate] | significantly lower flux
5 | – | – | CCCCCCCCCOC(=O)CCCCCCCN(CCO)CCCCCCCC(=O)OC(CC)CC [Compound 59, nonyl 8-((2-hydroxyethyl)(8-oxo-8-(pentan-3-yloxy)octyl)amino) octanoate] | significantly lower flux
6 | – | – | CCCCCCCCCOC(=O)CCCCCCCN(CCCCCCCC(=O)OC(CCCCCCCC)CCCCCCCC)CCC(=O)O [Compound 125, 3-((8-(Heptadecan-9-yloxy)-8-oxooctyl)(8-(nonyloxy)-8-oxooctyl)amino)propanoic acid] | significantly lower flux
7 | 184.4 | 85.7 | CCCCCCCCCCCCN(CCO)CCCCCCCCCCCC(=O)OC [Compound 137, Methyl 12-(dodecyl(2-hydroxyethyl)amino)dodecanoate] | significantly lower flux
8 | – | – | CCCCCCCC/C=C\COC(=O)CCCCCN(CCO)CCCCCC(=O)OC/C=C\CCCCCCCC [Compound 140, Di((Z)-undec-2-en-1-yl) 6,6′-((2-hydroxyethyl)azanediyl)dihexanoate] | significantly lower flux
9 | – | – | CCCCCCCCCCCOC(=O)CCCCCN(CCO)CCCCCC(=O)OCCCCCCCCCCC [Compound 141, Diundecyl 6,6′-((2-hydroxyethyl)azanediyl)dihexanoate] | significantly lower flux
10 | – | – | CCCCCCCCCOC(=O)CCCCCCCN(CCO)CCCCCCCC(=O)OC(C)(C)C [Compound 158, tert-Butyl 8-((2-hydroxyethyl)(8-(nonyloxy)-8-oxooctyl)amino)octanoate] | significantly lower flux
